Experimental data reported in patent US8901118B2, “Compounds and methods for kinase modulation, and indications therefor” (Plexxikon Inc., priority 2010, dated 2014).

How the values were obtained:
CYP3A4(BFC) = CYP3A4(BFC) (Homo sapiens, UniProt P08684); experiment: CYP3A4(BFC) inhibition; type: in vitro ADME; details: CYP3A4, substrate BFC; read-out: Cyp IC50 3A4(BFC)
Procedure, shortened: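 This fluorescence assay tracks how test compounds reduce CYP3A4 turnover of BFC, with enzyme and substrate from BD Biosciences. A 10-point 1:1 dilution series in cofactor mix (1.3% NADPH Regeneration Solution A, 1.04% Solution B, 5% acetonitrile, 0.05% DMSO) was dispensed at 10 μL into 384 well plates, preincubated 10 minutes at 37° C, then incubated 30 min and read on a Tecan Safire 2.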

CYP1A2 = molecular target: T1, CYP1A2 (Homo sapiens, UniProt P05177); experiment: CYP1A2 inhibition (fluorescent substrate CEC); type: in vitro ADME; details: read-out: Cyp IC50 1A2
T1 sequence (P05177 1-516): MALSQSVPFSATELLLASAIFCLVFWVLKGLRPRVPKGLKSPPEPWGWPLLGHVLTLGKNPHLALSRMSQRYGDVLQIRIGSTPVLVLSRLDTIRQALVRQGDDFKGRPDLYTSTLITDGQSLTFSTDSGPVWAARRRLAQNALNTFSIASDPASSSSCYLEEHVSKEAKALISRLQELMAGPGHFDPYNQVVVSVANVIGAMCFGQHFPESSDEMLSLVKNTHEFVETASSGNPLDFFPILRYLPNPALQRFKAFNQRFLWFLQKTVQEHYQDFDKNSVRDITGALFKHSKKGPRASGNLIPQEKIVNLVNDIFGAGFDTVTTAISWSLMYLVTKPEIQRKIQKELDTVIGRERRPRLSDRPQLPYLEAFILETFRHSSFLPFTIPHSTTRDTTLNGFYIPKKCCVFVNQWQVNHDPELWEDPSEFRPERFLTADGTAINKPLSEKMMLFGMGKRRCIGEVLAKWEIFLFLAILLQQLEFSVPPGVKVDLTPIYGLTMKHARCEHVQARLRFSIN
Procedure, shortened: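 10-pt 1:1 dilution series (from 100 mM DMSO stock) in NADPH regen cofactor mix, 5% MeCN; 10 min preincubation at 37 °C. Enzyme reaction 37 °C: 1A2 15 min, 2C9 45 min, 2C19/2D6 30 min. Fluorescence readout; IC50 fit.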

[1] = Relative solubility by turbidity in aqueous buffers (pH 1.5, 4.5, 6.8, 7.4); type: physicochemical; details: for turbidity threshold (L, M, H) 1.4: pH 1.5 (SGF); for turbidity threshold (L, M, H) 4.5: pH 4.5 (SIF); for turbidity threshold (L, M, H) 6.8: pH 6.8 (SIF); for turbidity threshold (L, M, H) 7.4: pH 7.4 (HEPES)
Procedure, shortened: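 Reported value: concentration at which optical density at 490, 535 and 650 nm passes 0.01, taken as the mean of the three wavelengths. Buffers were 0.5M NaCl pH 1.5, 0.05M NaH2PO4 pH 4.5 or 6.8, and 10 mM HEPES/150 mM NaCl pH 7.4, each receiving serial 1:1 DMSO dilutions of a 25 mM stock.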

CYP3A4(BFC), sequence (P08684 whole entry): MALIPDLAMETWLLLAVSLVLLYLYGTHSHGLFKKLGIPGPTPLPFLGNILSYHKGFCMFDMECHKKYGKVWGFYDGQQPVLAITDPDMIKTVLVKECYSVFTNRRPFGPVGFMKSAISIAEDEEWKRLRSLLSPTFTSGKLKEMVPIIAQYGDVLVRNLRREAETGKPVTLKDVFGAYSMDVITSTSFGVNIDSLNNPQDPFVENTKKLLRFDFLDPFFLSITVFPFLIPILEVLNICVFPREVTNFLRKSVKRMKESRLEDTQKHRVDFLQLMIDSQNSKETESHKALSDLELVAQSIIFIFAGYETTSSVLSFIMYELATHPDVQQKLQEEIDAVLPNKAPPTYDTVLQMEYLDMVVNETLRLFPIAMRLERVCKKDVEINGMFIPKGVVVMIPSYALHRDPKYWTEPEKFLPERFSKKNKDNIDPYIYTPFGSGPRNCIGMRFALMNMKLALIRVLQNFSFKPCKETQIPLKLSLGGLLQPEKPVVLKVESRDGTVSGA

Row | Compound | IC50 (CYP3A4(BFC)) | IC50 (CYP1A2) | turbidity threshold (L, M, H) 1.4 [1] | turbidity threshold (L, M, H) 4.5 [1] | turbidity threshold (L, M, H) 6.8 [1] | turbidity threshold (L, M, H) 7.4 [1]
1 | CCc1ccc(Nc2ccc(C(=O)c3c[nH]c4ncnc(N[C@@H](C)c5ccc(F)cc5)c34)c(F)n2)cn1 [Compound P-4097, [6-[(6-ethyl-3-pyridyl)amino]-2-fluoro-3-pyridyl]-[4-[[(1S)-1-(4-fluorophenyl)ethyl]amino]-7H-pyrrolo[2,3-d]pyrimidin-5-yl]methanone] | > 10 µM | < 5 µM | M (moderate solubility if the threshold concentration is 31.3 μM to 250 μM) | L (low solubility if the threshold concentration is <31.3 μM) | L (low solubility if the threshold concentration is <31.3 μM) | L (low solubility if the threshold concentration is <31.3 μM)
2 | CCc1ccc(Nc2ccc(C(=O)c3c[nH]c4ncnc(NCCCOC)c34)c(F)n2)cn1 [Compound P-4098, [6-[(6-ethyl-3-pyridyl)amino]-2-fluoro-3-pyridyl]-[4-(3-methoxypropylamino)-7H-pyrrolo[2,3-d]pyrimidin-5-yl]methanone] | > 10 µM | < 5 µM | H (high solubility if the threshold concentration is >250 μm) | L (low solubility if the threshold concentration is <31.3 μM) | M (moderate solubility if the threshold concentration is 31.3 μM to 250 μM) | M (moderate solubility if the threshold concentration is 31.3 μM to 250 μM)
3 | CCc1ccc(Nc2ccc(C(=O)c3c[nH]c4ncnc(NC5CCCC5)c34)c(F)n2)cn1 [Compound P-4099, [4-(cyclopentylamino)-7H-pyrrolo[2,3-d]pyrimidin-5-yl]-[6-[(6-ethyl-3-pyridyl)amino]-2-fluoro-3-pyridyl]methanone] | > 10 µM | < 5 µM | H (high solubility if the threshold concentration is >250 μm) | L (low solubility if the threshold concentration is <31.3 μM) | L (low solubility if the threshold concentration is <31.3 μM) | L (low solubility if the threshold concentration is <31.3 μM)

Now from value to molecule, other results behind:

Row | IC50 (CYP3A4(BFC)) | IC50 (CYP1A2) | Compound | turbidity threshold (L, M, H) 1.4 [1] | turbidity threshold (L, M, H) 4.5 [1] | turbidity threshold (L, M, H) 6.8 [1] | turbidity threshold (L, M, H) 7.4 [1]
4 | > 10 µM | < 5 µM | CCCCNc1ncnc2[nH]cc(C(=O)c3ccc(Nc4ccc(CC)nc4)nc3F)c12 [Compound P-4100, [4-(butylamino)-7H-pyrrolo[2,3-d]pyrimidin-5-yl]-[6-[(6-ethyl-3-pyridyl)amino]-2-fluoro-3-pyridyl]methanone] | H (high solubility if the threshold concentration is >250 μm) | M (moderate solubility if the threshold concentration is 31.3 μM to 250 μM) | M (moderate solubility if the threshold concentration is 31.3 μM to 250 μM) | M (moderate solubility if the threshold concentration is 31.3 μM to 250 μM)
5 | > 10 µM | > 10 µM | CC(C)Nc1ncnc2[nH]cc(C(=O)c3ccc(NC4CCCCC4)nc3F)c12 [Compound P-4101, [6-(cyclohexylamino)-2-fluoro-3-pyridyl]-[4-(isopropylamino)-7H-pyrrolo[2,3-d]pyrimidin-5-yl]methanone] | M (moderate solubility if the threshold concentration is 31.3 μM to 250 μM) | L (low solubility if the threshold concentration is <31.3 μM) | L (low solubility if the threshold concentration is <31.3 μM) | L (low solubility if the threshold concentration is <31.3 μM)
